Assay: Solubility tests of monomer 1 with auxiliary surfactants (additives) in the monomer solution
Type: physicochemical
Settings: recipe 27 mol % sodium acrylate, 72.9 mol % acrylamide, 0.1 mol % 1; for Result (solubility of monomer 1 with additive): additive 2-20 eq relative to 1
From the text: In order to solubilize monomer 1 the monomer was first dissolved in ethanol and then added to the monomer solution.
These tests were done in first instance with 0.1 mol % of 1.

Structure (SMILES)	Result (solubility of monomer 1 with additive)	Result (solubility of monomer 1 without additive) (no additive)
CCCCCCCCCCCCCCC(O)C[N+](C)(C)CCO.[Cl-] (stereo not shown) [Dehyquart E-CA, (2-hydroxyethyl)(2-hydroxyhexadecyl)dimethylammonium chloride]	Not soluble**	
C=C(C)C(=O)OCCC[N+](C)(C)CCCCCCCCCCCC [Monomer 1]		Not soluble**
CCCCCCCCCCCCCC[N+](C)(C)C.[Br-] [Monomer C14TAB, Tetradecyltrimethylammonium bromide, reference compound]	Not soluble**	
CCCCCCCCCCCCN(CCC(=O)[O-])CCC(=O)O.[Na+] [Deriphat 160 C, Sodium-N-lauryl-R-iminodipropionate]	Not soluble**	

Reference: US11649396B2, “Associative copolymers with hydrophobic quaternized (meth)acrylamide and (meth)acrylic acid derivatives” (BASF SE, priority 2018, dated 2023)
